From ChEMBL document CHEMBL1136451, “Semi-synthetic glycopeptide antibacterials” (Bioorg Med Chem Lett, 2003) come the findings set out here.

≈ marks a conversion by molar mass, not a printed value.

Broadly, the MIC is the smallest concentration in the dilution series that meets the test's criterion for growth inhibition. As usually defined, the Cmax is the highest concentration seen after dosing. One may read the half-life as the time in which the quantity being followed falls by half. The low end stands for rapid decline, the high end for slow decline. For orientation: IC50 means the point on the concentration scale where inhibition reaches its midpoint. What is called MIC90 is the lowest concentration that inhibits either 90% of growth or 90% of the strains tested, depending on the study. High values mean weaker potency, low ones greater potency.

Data set [1] relates to Staphylococcus aureus. Nature of the data set: Antibacterial activity against Vancomycin resistant staphylococcus aureus (VRSA). Type of data set: functional.
Data set [2] in a line: Cmax (Tissue distribution) of compound was determined at a dose of 5 mg/kg in human. Type of data set: ADME, organism-based. More on the design: dose 5 mg/kg. The note with it: in vivo.
Data set [3] in a line: Half life of compound was determined in man with once daily dosing. Type of data set: ADME. The settings on record: human.
Data set [4] has as its system Staphylococcus aureus. Nature of the data set: Inhibitory activity of compound against Staphylococcus aureus ATCC 33591. Type of data set: functional, organism-based.
The next data set deals with Enterococcus faecalis. Nature of the data set: Inhibitory activity of compound against VanA Enterococcus faecalis MGH-01. Type of data set: functional, organism-based.
A further data set concerns Streptococcus agalactiae. Nature of the data set: Inhibitory activity of compound against Streptococcus agalactiae KPB-01. Type of data set: functional, organism-based.
The test system of a further data set is Streptococcus pneumoniae. Nature of the data set: Antibacterial activity against Streptococcus pneumoniae. Type of data set: functional.
For another data set, the system named is Enterococcus sp. Nature of the data set: Antibacterial activity against Enterococcus species., VanA. Type of data set: functional.
The test system of data set [5] is Staphylococcus aureus. Nature of the data set: Antibacterial activity against Methicillin resistant staphylococcus aureus (MRSA). Type of data set: functional.

With `CCCCCCCCCCNCCN[C@@]1(C)C[C@H](O[C@H]2[C@H](Oc3c4cc5cc3Oc3ccc(cc3Cl)[C@@H](O)[C@]3(C)NC(=O)[C@H](NC(=O)[C@@H]5NC(=O)[C@H](CC(N)=O)NC(=O)[C@](C)(NC(=O)[C@@H](CC(C)C)NC)[C@H](O)c5ccc(c(Cl)c5)O4)c4ccc(O)c(c4)-c4c(O)cc(O)cc4[C@@H](C(=O)O)NC3=O)O[C@H](CO)[C@@H](O)[C@@H]2O)O[C@@H](C)C1O` (stereo not given in full), in the data set on Staphylococcus aureus [1], the MIC came to 0.4 µg/mL (≈ 0.241 µM).

In data set [2], `CCCCCCCCCCNCCN[C@@]1(C)C[C@H](O[C@H]2[C@H](Oc3c4cc5cc3Oc3ccc(cc3Cl)[C@@H](O)[C@@H](NC(=O)[C@@H](CC(C)C)NC)C(=O)N[C@@H](CC(N)=O)C(=O)N[C@H]5C(=O)N[C@H]3C(=O)N[C@H](C(=O)N[C@H](C(=O)O)c5cc(O)c(CNCP(=O)(O)O)c(O)c5-c5cc3ccc5O)[C@H](O)c3ccc(c(Cl)c3)O4)O[C@H](CO)[C@@H](O)[C@@H]2O)O[C@@H](C)[C@H]1O` had a Cmax of 45000 ng/mL. Besides, the half-life in data set [3] is 420 min.

On to `CCCCCCCCCCNCCN[C@@]1(C)C[C@H](O[C@H]2[C@H](Oc3c4cc5cc3Oc3ccc(cc3Cl)[C@@H](O)[C@@](C)(NC(=O)[C@@H](CC(C)C)NC)C(=O)N[C@@H](CC(N)=O)C(=O)N[C@H]5C(=O)N[C@H]3C(=O)N[C@H](C(=O)N[C@H](C(=O)O)c5cc(O)c(CNCP(=O)(O)O)c(O)c5-c5cc3ccc5O)[C@H](O)c3ccc(c(Cl)c3)O4)O[C@H](CO)[C@@H](O)[C@@H]2O)O[C@@H](C)C1O` (stereo not given in full) [listing 1 of 2 here], for which the values for the IC50 in the data set on Staphylococcus aureus [4], in the data set with Enterococcus faecalis and with Streptococcus agalactiae were 23 µg/mL (≈ 13 µM), 10 µg/mL (≈ 5.65 µM) and 15 µg/mL (≈ 8.48 µM), respectively.

Regarding `CCCCCCCCCCNCCN[C@@]1(C)C[C@H](O[C@H]2[C@H](Oc3c4cc5cc3Oc3ccc(cc3Cl)[C@@H](O)[C@@](C)(NC(=O)[C@@H](CC(C)C)NC)C(=O)N[C@@H](CC(N)=O)C(=O)N[C@H]5C(=O)N[C@H]3C(=O)N[C@H](C(=O)N[C@H](C(=O)O)c5cc(O)c(CNCP(=O)(O)O)c(O)c5-c5cc3ccc5O)[C@H](O)c3ccc(c(Cl)c3)O4)O[C@H](CO)[C@@H](O)[C@@H]2O)O[C@@H](C)C1O` (stereo not given in full) [listing 2 of 2 here], the MIC90 in the data set with Streptococcus pneumoniae came out at 8 ng/mL (≈ 0.00452 µM); with Enterococcus sp. it was 8 µg/mL (≈ 4.52 µM); with Staphylococcus aureus [5], 1 µg/mL (≈ 0.565 µM). The MIC against Staphylococcus aureus [1] is 2 µg/mL (≈ 1.13 µM).

With `CN[C@H]1C(=O)N[C@@H]2Cc3ccc(cc3)Oc3cc4cc(c3O[C@@H]3O[C@H](C(=O)O)[C@@H](O)[C@H](O)[C@H]3NC(=O)CCCCCCCCC(C)C)Oc3ccc(cc3Cl)[C@@H](O)[C@@H]3NC(=O)[C@H](NC(=O)[C@@H]4NC(=O)[C@@H](NC2=O)c2cc(cc(O)c2Cl)Oc2cc1ccc2O)c1ccc(O)c(c1)-c1c(O[C@H]2O[C@H](CO)[C@@H](O)[C@H](O)[C@@H]2O)cc(O)cc1[C@@H](C(=O)NCCCN(C)C)NC3=O` [DALBAVANCIN], the MIC90 against Streptococcus pneumoniae was 60 ng/mL (≈ 0.033 µM); with Enterococcus sp. it was 128 µg/mL (≈ 70.5 µM); against Staphylococcus aureus [5], 0.25 µg/mL (≈ 0.138 µM).

As for `CN[C@H](CC(C)C)C(=O)N[C@H]1C(=O)N[C@@H](CC(N)=O)C(=O)N[C@H]2C(=O)N[C@H]3C(=O)N[C@H](C(=O)N[C@H](C(=O)O)c4cc(O)cc(O)c4-c4cc3ccc4O)[C@H](O[C@H]3C[C@](C)(N)[C@@H](O)[C@H](C)O3)c3ccc(c(Cl)c3)Oc3cc2cc(c3O[C@@H]2O[C@H](CO)[C@@H](O)[C@H](O)[C@H]2O[C@H]2C[C@](C)(NCc3ccc(-c4ccc(Cl)cc4)cc3)[C@@H](O)[C@H](C)O2)Oc2ccc(cc2Cl)[C@H]1O` [ORITAVANCIN], the results for the MIC90 in the data set on Streptococcus pneumoniae, in the data set on Enterococcus sp. and with Staphylococcus aureus [5] were 8 ng/mL (≈ 0.00446 µM), 4 µg/mL (≈ 2.23 µM) and 1 µg/mL (≈ 0.558 µM), respectively. In the data set with Staphylococcus aureus [1], this molecule came in with an MIC of 0.5 µg/mL (≈ 0.279 µM).

Consider `CN[C@H](CC(C)C)C(=O)N[C@H]1C(=O)N[C@@H](CC(N)=O)C(=O)N[C@H]2C(=O)N[C@H]3C(=O)N[C@H](C(=O)N[C@H](C(=O)O)c4cc(O)cc(O)c4-c4cc3ccc4O)[C@H](O)c3ccc(c(Cl)c3)Oc3cc2cc(c3O[C@@H]2O[C@H](CO)[C@@H](O)[C@H](O)[C@H]2O[C@H]2C[C@](C)(N)[C@H](O)[C@H](C)O2)Oc2ccc(cc2Cl)[C@H]1O` [VANCOMYCIN], for which the MIC90 against Streptococcus pneumoniae amounted to 8 ng/mL (≈ 0.00552 µM); against Enterococcus sp., 4 µg/mL (≈ 2.76 µM); in the data set with Staphylococcus aureus [5] it was 1 µg/mL (≈ 0.69 µM).
